# Laboratory results reported in patent US20220110936A1, “PHARMACEUTICAL COMPOSITION FOR TREATMENT OF NEURODEGENERATIVE DISEASES OR DISEASES CAUSED BY ABNORMALITY OF RNA BINDING PROTEIN AND APPLICATIONS THEREOF” (Shanghai Institute of Organic Chemistry, Chinese Academy of …, priority 2019, published 2022).
# Assays:
# hnRNP A1 = target: T1, hnRNP A1 (Homo sapiens, UniProt P09651); assay: In vitro liquid-liquid phase separation (LLPS) of hnRNP A1; details: added under critical conditions
# T1 construct: host or cells: E. coli BL21 (DE3) pLysS
# T1 sequence (P09651 1-320 isoform P09651-2): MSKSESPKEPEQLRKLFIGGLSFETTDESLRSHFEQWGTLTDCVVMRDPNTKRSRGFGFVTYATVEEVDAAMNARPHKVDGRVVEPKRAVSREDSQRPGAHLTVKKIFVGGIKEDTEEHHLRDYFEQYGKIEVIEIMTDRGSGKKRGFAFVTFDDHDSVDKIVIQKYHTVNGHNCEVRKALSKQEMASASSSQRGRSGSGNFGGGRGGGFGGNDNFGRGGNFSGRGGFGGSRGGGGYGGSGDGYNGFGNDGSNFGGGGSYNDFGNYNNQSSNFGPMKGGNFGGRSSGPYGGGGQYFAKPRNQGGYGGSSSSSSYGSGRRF
# Procedure: pET9d-hnRNP A1 (Addgene) was used for hnRNP A1 protein expression in E. coli BL21 (DE3) pLysS (TranGeneBiotech). After 0.4 mM IPTG (SangonBiotech) induction at 25° C. for 15 h, the obtained bacteria were collected by centrifugation, and lysed by lysis buffer (50 mM Tris-HCl at pH 7.5, 2 mM DTT, 1 mM PMSF, 5% glycerin, and 0.1 mg/mL RNase A). Supernatant was collected by centrifugating the lysate at a high speed at 4° C. and then transferred to a 5 ml SP column in an AKTA (GE Healthcare) machine. The protein binded on the column was eluted with a mixture (9:1) of buffer A (50 mM Tris-HCl pH 7.5, 2 mM DTT and 5% glycerin) and buffer B (buffer A with 1 M NaCl). The eluted protein was purified by Superdex 75 16/600 column (GE Healthcare). The purified protein was dissolved in stock buffer (50 mM Tris-HCl pH 7.5, 500 mM NaCl and 2 mM DTT) for subsequent experiments.
# The purified hnRNP A1 protein was mixed with a certain concentration of PAR (Trevigen) under a certain salt concentration. The reaction system was 50 mM Tris-HCl, pH 7.5, 10% (w/v) […] (Sigma) and 2 mM DTT. After the mixture was incubated at room temperature for 3 minutes, 5 μl was dropped on a glass slide for observation with an SP8 confocal microscope (Leica).
# ALS patients = details: cited from earlier work
# PARP = assay: Western blot of intracellular PARylation level in HeLa cells; type: cell-based, human; details: 20 μM, 3 h, vs DMSO
# Procedure: Drug treatment: in order to inhibit the level of intracellular PARylation, 20 μM PARP inhibitor Olaparib (Selleck) was added 3 hours before harvesting the plasmid-transfected samples mentioned above, and the control group was treated with an equal volume of DMSO. […]
# Immunoblotting assay: the above boiled proteins were separated by 10% Bis-Tris SDS-PAGE (Invitrogen), then transferred to 0.22 μm PVDF membrane (Millipore), sealed with 5% skimmed milk powder, and added with corresponding antibodies (anti-pan-ADP-ribose binding reagent (Millipore), mouse anti-Tubulin (MLB), rabbit anti-PRAG (CST), mouse anti-GAPDH (Proteintech)) for immunoblotting assay. Membranes incubated with primary antibodies were then incubated with the corresponding secondary antibodies coupled with HRP (goat anti-mouse (Sigma), goat anti-rabbit (sigma)), and corresponding protein signals were detected in Amersham Imager 600 (GE Healthcare) using ECL luminescent solution (Tanon).
# [1] = tested on: motor neuron-like NSC-34 cells overexpressing TDP-43; assay: Cell viability (CCK-8) of NSC-34 cells overexpressing TDP-43; type: cell-based; details: 5 μM
# Procedure: (§1) 293T cells were cultured in DMEM (sigma) containing 10% FBS (Biowest). NSC-34 cells were cultured with RPMI 1640 medium (Gibco, 11875-093) containing 10% FBS. Cells were grown at 37° C. with 5% carbon dioxide. Cells were both purchased from ATCC.
# (§2) Lentiviral packaging plasmids and the corresponding exogenous hnRNP A1 or TDP-43 expression plasmids were transfected simultaneously in 293T cells with PolyJet™ transfection reagent. After 48 hours of transfection, the cell culture was collected by filtration with a 0.45 μm syringe filter (Millipore) and concentrated with Lenti-X™ Concentrator (Clontech), and the concentrated product was used for subsequent infection of NSC-34 cells.
# (§3) NSC-34 cells were seeded one day in advance in 96-well plates (Corning) and the corresponding lentivirus was added for transfection. Cell viability was determined 48-72 h after transfection using Cell Counting Kit-8 (CCK-8) (Dojindo) kit. In brief, 10 μL of CCK-8 solution was added to each well. After incubation at 37° C. for 2.5 h, the absorbance light at 450 nm of the solution was detected with a Synergy2 microplate reader (BioTek Instruments) and cell viability values were calculated according to the instructions.
# (§4) The siRNA transfection procedure was the same as that in Example 1, and the transfection time was 48-60 h. The corresponding siRNA sequences are as follows.
# [2] = tested on: stress granules containing TDP-43 protein in HeLa cells; assay: Assembly of stress granules containing TDP-43 under sodium arsenite (immunofluorescence); type: cell-based, human; details: 20 μM, 3 h pretreatment, vs DMSO
# Procedure: Drug treatment: in order to inhibit the level of intracellular PARylation, 20 μM PARP inhibitor Olaparib (Selleck) was added 3 hours before harvesting the plasmid-transfected samples mentioned above, and the control group was treated with an equal volume of DMSO.
# In order to induce the production of stress granules, the HeLa cells collected in 1.1.3 were treated with 100 μM sodium arsenite (Sigma) for 0, 10 and 30 minutes, respectively.
# Cells harvested after treatment in 1.1.4 above were washed once with PBS, fixed with 4% paraformaldehyde (Sangon Biotech) for 15 min, permeabilized with 0.5% Triton-X100 (Sigma) solution for 10 min, and finally incubated with PBST solution containing 3% goat serum (Sigma) (0.1% Tween 20 (Sigma) in PBS) for 1 h at room temperature and incubated overnight at 4° C. with antibodies (Rabbit anti-TIAR (CST), Mouse anti-Flag (Sigma)). The cells were washed with PBST three times at room temperature and incubated for 1 hour at room temperature. After washing three times with PBST at room temperature, fluorescent secondary antibodies (goat anti-mouse-Alexa Fluor 488 (Thermo), goat anti-rabbit-Alexa Fluor 568 (Thermo)) were added for labeling, and then Vectashield Antifade Mounting Medium with DAPI (Vector Laboratories) was used to seal the slices. The signals were observed and acquired under a 100× oil microscope on a Leica TCS SP8 confocal microscope. […]
# [3] = tested on: motor neuron-like NSC-34 cells overexpressing hnRNP A1; assay: Cell viability (CCK-8) of NSC-34 cells overexpressing hnRNP A1; type: cell-based
# Procedure: as §1, §2, §3, §4
# [4] = tested on: stress granules containing hnRNP A1 protein in HeLa cells; assay: Assembly of stress granules containing hnRNP A1 under sodium arsenite (immunofluorescence); type: cell-based, human; details: 20 μM, 3 h pretreatment, 100 μM sodium arsenite 0, 10, 30 min, vs DMSO
# Procedure: HeLa cells were cultivated in Dulbecco's modified Eagle's medium (DMEM) (sigma) containing 10% fetal bovine serum (FBS) (Biowest). Cells were purchased from American Type Culture Collection (ATCC) and grown at 37° C., 5% carbon dioxide. In the present invention, unless otherwise specified, cell were seeded 12-18 hours in advance in 24-well plates (Corning) containing glass slides (Thermo) at a density of 2×10^5/ml experiments if the cells were used for subsequent immunofluorescence assays, cells were seeded 12-18 hours in advance in 12-well or 6-well plates at a density of 5×10^5/ml if the cells were used for subsequent WB detection assays.
# Plasmid transfection: The plasmid pCAG-hnRNP A1-Flag constructed in 1.1.1 was transfected with PolyJet™ reagent (SignaGen) (the amount of transfection plasmid is 0.8 μg/ml, and the ratio of transfection reagent to transfection plasmid is 1:2 (mass volume percentage, for example, […])). Cells were seeded 12-18 hours in advance and transfection was started when the confluence of cell reached about 70%. About 6 hours after transfection, culture medium were changed to ensure growth status of cells. After the exogenous protein was expressed for 24-48 h, the next step of the experiment can be carried out. […]
# hnRNP A1 and TDP-43 = assay: In vitro co-phase separation of hnRNP A1 and TDP-43 fragments
# Procedure: TDP-43^1-274: The expression plasmid pET-28a-TDP-43^1-274-6×His was expressed in BL21 E. coli (DE3) (TranGeneBiotech) after induction by 50 uM IPTG (SangonBiotech) at 19° C. for 16 h. The resulting bacteria were collected by centrifugation, and lysed by lysis buffer (50 mM Tris-HCl, 500 mM NaCl, pH 8.0, 10 mM imidazole, 4 mM β-mercaptoethanol, 1 mM PMSF, and 0.1 mg/mL RNase A). Supernatant was collected by centrifugating the lysate at low temperature and then purified and enriched by Ni column (GE Healthcare). The protein enriched by Ni columns was eluted with eluent (50 mM Tris-HCl, 500 mM NaCl, pH 8.0, 250 mM imidazole and 4 mM β-mercaptoethanol), and then purified with Superdex 200 […] column (GE Healthcare). The purified protein was finally dissolved in a storage buffer (50 mM Tris-HCl pH 7.5, 300 mM NaCl and 2 mM DTT) for subsequent experiments.
# TDP-43^274-414: This protein was expressed in BL21 E. coli (DE3) (TranGeneBiotech) by adding 50 uM IPTG (SangonBiotech) at 37° C. for inducing the expression of the protein in inclusion bodies. Collected bacteria were lysed with denaturing lysis buffer (50 mM Tris-HCl, pH 8.0 and 6 M guanidine hydrochloride). The lysis product was centrifuged at high speed for 1 h at 4° C. and the supernatant was collected for purification by Ni column. The proteins were eluted with denaturing elution solution (50 mM Tris-HCl at pH 8.0, 6 M guanidine hydrochloride and 50 mM imidazole) and then further purified by HPLC (Agilent) and the resulting product was lyophilized using a freeze-dryer (Thermo Fisher) and then prepared for use.
# The purified TDP-43^1-274 and hnRNP A1 proteins (obtained in Example 6) were diluted separately into desalting reaction solution (50 mM Tris-HCl, pH 7.5, 500 mM NaCl and 4 mM Tris(2-Carboxyethyl) Phosphine (TCEP) (Invitrogen)), and DTT was removed using a desalting column (GE Healthcare). After desalting, TDP-43^1-274 and hnRNP A1 proteins were incubated for 2 h at room temperature with 5 times the volume of AlexaFluor-555 C2-malemide (Invitrogen) or AlexaFluor-647 C2-malemide (Invitrogen), respectively. […]
molecule,measurement,setting,value
heparin,LLPS of hnRNP A1,hnRNP A1,did not promote
CC1=NN(c2ccccc2)C(=O)C1 [Edaravone],physical impairment in ALS patients,ALS patients; phase III clinical trials,alleviate some degree of physical impairment
Nc1nc2ccc(OC(F)(F)F)cc2s1 [Riluzole],prolongation of the patient's life,ALS patients; ALS patients,3-6 months
same,side effects,ALS patients; ALS patients,"nausea, dizziness and even pneumonia"
O=C(c1cc(Cc2n[nH]c(=O)c3ccccc23)ccc1F)N1CCN(C(=O)C2CC2)CC1 [Olaparib],intracellular level of PARylation (WB),PARP,significantly reduce
same,cytotoxicity induced by overexpression of TDP-43,[1],can reduce the cytotoxicity
same,formation of intracellular stress granules and stress granules containing TDP-43,[2],delayed
same,hnRNP A1-induced neurocytotoxicity,[3],significant inhibitory effect
same,formation of intracellular stress granules and stress granules containing hnRNP A1,[4],delayed
poly(ADP-ribose) [PAR],co-phase separation of hnRNP A1 and TDP-43 1-274,hnRNP A1 and TDP-43,can promote
same,co-phase separation of hnRNP A1 and TDP-43 274-414,hnRNP A1 and TDP-43; high concentration,cannot promote
same,phase separation of hnRNP A1 or TDP-43 1-274 alone,hnRNP A1 and TDP-43; high concentration,cannot promote
same,LLPS of hnRNP A1,hnRNP A1,promoted
